Assay results taken from article PMC10783114, “Establishment of a screening platform based on human coronavirus OC43 for the identification of microbial natural products with antiviral activity” (Microbiology Spectrum, 2023).
Read-outs that look alike come from different tables or passages of the source. Non-standard residues stand in square brackets, D forms with d. Residues, ends and D or L forms follow the SMILES beside them. dLac(3-vinyl) = C=CC[C@@H](O)C(=O)O; dHica = CC(C)C[C@@H](O)C(=O)O; NMeV = CN[C@H](C(=O)O)C(C)C; NMeA = CN[C@@H](C)C(=O)O; βAla = NCCC(=O)O

Key:
HCoV-OC43 [1] = assay: High-content screening assay, anti-OC43 immunostaining of infected MRC-5 cells; format: cell-based, Human betacoronavirus OC43
HCoV-OC43 [2] = test system: HCoV-OC43; set-up: method as in PMID 30918074; settings: mouse model ref 29; cited from earlier work
in vitro = settings: human
MERS = settings: marmosets infected with MERS ref 35; cited from earlier work
HCoV-OC43 [3] = assay: Resazurin-based CPE inhibition assay in HCoV-OC43-infected MRC-5 cells; format: cell-based, Human betacoronavirus OC43; settings: for antiviral activity against HCoV-OC43 infection in MRC-5 cells (in words): tested in both assays (CPE inhibition and HCS)
MRC-5 cells [4] = test system: MRC-5 cells
HCoV-OC43 [5] = assay: RT-qPCR of extracellular HCoV-OC43 RNA in culture supernatants; format: cell-based, Human betacoronavirus OC43; settings: 72 h incubation
Procedure: Viral RNA from supernatants was purified using the Macherey-Nagel Nucleospin RNA Kit. RT-qPCR was performed in a single step using the One-Step TB Green PrimeScript RT-PCR Kit II (Takara Bio). The HCoV-OC43 nucleocapsid gene was amplified with the following primers: the forward primer 5′ […]-3′ and the reverse primer 5′ […]-3′ ([27]). A standard curve was generated with purified HCoV-RNA (Vircell).

MRC-5 cells [6] = assay: Resazurin cytotoxicity assay in non-infected MRC-5 cells; settings: MRC-5 cells
[7] = as above; settings: human
[8] = Betacoronavirus 1, OC43, MRC5, infected MRC-5, 72 h incubation with drug, 4 days post-infection, read-out: EC50 (HCS assay)
[9] = Betacoronavirus 1, MRC5, MRC-5 infected with HCoV-OC43 at 0.1 MOI, 96 h with drug, 5 days post-infection, resazurin readout, read-out: EC50 (CPE inhibition assay)
[10] = CC50, non-infected MRC-5 cells, 96 h incubation, resazurin
[11] = Betacoronavirus 1, OC43, MRC5, read-out: EC50 (HCS assay)

Compound: COc1c(C)c2c(c(O)c1C/C=C(\C)CCC(=O)OCCN1CCOCC1)C(=O)OC2 [Mycophenolate mofetil, mycophenolate mofetil]
- EC50 (HCoV-OC43 [1]; [8]): 1.91 µM
- antiviral activity against HCoV-OC43 in a mouse model (HCoV-OC43 [2]): no antiviral activity
- CC50 (in vitro): > 200 µM
- side effects in vivo (MERS): severe side effects
- EC50 (HCoV-OC43 [3]; [9]): 20.7 µM
- antiviral activity against HCoV-OC43 infection in MRC-5 cells (in words) (HCoV-OC43 [3]): showed activity

Compound: CCCCC/C=C\C/C=C\CCCCCCCC(=O)O [Linoleic acid, linoleic acid]
- toxicity against MRC-5 host cells (in words) (MRC-5 cells [4]): no evident toxicity
- EC50 (HCoV-OC43 [1]; [8]): 18.3 µM
- HCoV-OC43 RNA load in supernatant (HCoV-OC43 [5]; 15 µM): below 50%
- CC50 at 96 h (in vitro): > 40 µM
- EC50 (HCoV-OC43 [3]; [9]): 25.6 µM
- antiviral activity against HCoV-OC43 infection in MRC-5 cells (in words) (HCoV-OC43 [3]): showed activity

Compound: O=C1OCC(Cc2ccccc2)=C1c1ccccc1 [Gymnoascolide A, gymnoascolide A]
- toxicity against MRC-5 host cells (in words) (MRC-5 cells [6]): no evident toxicity
- EC50 (HCoV-OC43 [1]; infected MRC-5, 72 h incubation with drug, 4 days post-infection, read-out: EC50 (HCS assay)): 20.6 µM
- HCoV-OC43 RNA level in supernatant (HCoV-OC43 [5]; 40 µM): under 20%
- HCoV-OC43 RNA level (viral load) in supernatant (HCoV-OC43 [5]; 80 µM): below 5%
- antiviral activity against HCoV-OC43 infection in MRC-5 cells (in words) (HCoV-OC43 [3]): showed activity

Compound: C=CC[C@H]1OC(=O)CCNC(=O)[C@H](C)N(C)C(=O)[C@H](C(C)C)N(C)C(=O)[C@H]([C@@H](C)CC)NC(=O)[C@@H]2CCCN2C1=O [Destruxin A, destruxin A] (cyclo([dLac(3-vinyl)]PI[NMeV][NMeA][βAla]))
- CC50 at 96 h [7, 10]: ~10 µM
- antiviral activity against HCoV-OC43 infection in MRC-5 cells (in words) (HCoV-OC43 [3]): did not have an effect
- antiviral activity against HCoV-OC43 infection in MRC-5 cells (in words) (HCoV-OC43 [3]; listed as destruxin A): non-active

Compound: CC[C@H](C)[C@@H]1NC(=O)[C@@H]2CCCN2C(=O)[C@@H](CC(C)C)OC(=O)CCNC(=O)[C@H](C)N(C)C(=O)[C@H](C(C)C)N(C)C1=O [Destruxin B, destruxin B] (cyclo([dHica]PI[NMeV][NMeA][βAla]))
- CC50 at 96 h [7, 10]: ~10 µM
- antiviral activity against HCoV-OC43 infection in MRC-5 cells (in words) (HCoV-OC43 [3]): did not have an effect
- antiviral activity against HCoV-OC43 infection in MRC-5 cells (in words) (HCoV-OC43 [3]; listed as destruxin B): non-active

Compound: CCN(CC)CCCC(C)Nc1ccnc2cc(Cl)ccc12 (stereo not drawn) [Chloroquine, chloroquine]
- EC50 (HCoV-OC43 [1]; [11]): 1.23 µM
- EC50 (HCoV-OC43 [3]; Betacoronavirus 1, OC43, MRC5, read-out: EC50 (CPE inhibition assay)): 6.22 µM

Compound: NC(=O)c1ncn([C@@H]2O[C@H](CO)[C@@H](O)[C@H]2O)n1 [Ribavirin, ribavirin]
- CC50 at 96 h ([7]; non-infected MRC-5 cells): > 800 µM
- EC50 (HCoV-OC43 [1]; [11]): 92.1 µM
- selectivity index (HCoV-OC43 [3]): ~8
- EC50 (HCoV-OC43 [3]; [9]): 118 µM
- antiviral activity against HCoV-OC43 infection in MRC-5 cells (in words) (HCoV-OC43 [3]): showed activity
